{"source": "ChEMBL document CHEMBL5390228", "about": "“Unnatural Endotype B PPAPs as Novel Compounds with Activity against Mycobacterium tuberculosis” (J Med Chem, 2023)", "key": {"[1]": {"test_system": "Mycobacterium tuberculosis", "experiment": "Antimicrobial activity in Mycobacterium tuberculosis H37Rv ATCC 27294 assessed as reduction in metabolic activity by measuring incorporation radioactively labeled [3H] uracil into live bacilli preincubated for 72 hrs followed by [3H] uracil addition and measured after 18 hrs by beta-counter analysis", "assay_type": "functional, organism-based", "settings": "for Activity: time 90.0 hrs"}, "[2]": {"test_system": "Mycobacterium tuberculosis", "experiment": "Antimicrobial activity in Mycobacterium tuberculosis H37Rv ATCC 27294 infected in human Primary macrophage cells assessed as reduction in intracellular growth of bacteria incubated for 4 days by CFU assay", "assay_type": "functional, organism-based", "settings": "H37Rv ATCC 27294, Primary macrophage, 96 h"}, "[3]": {"test_system": "PBMC", "experiment": "Cytotoxicity against human PBMC cells assessed as reduction in cell viability at 2.5 to 75 uM incubated for 18 hrs by PrestoBlue reagent based fluorescence assay", "assay_type": "toxicity", "settings": "dose 2.5-75 µM"}, "[4]": {"test_system": "Macrophage", "experiment": "Cytotoxicity against human Primary macrophage cells assessed as reduction in cell viability at 2.5 to 75 uM incubated for 18 hrs by PrestoBlue reagent based fluorescence assay", "assay_type": "toxicity", "settings": "dose 2.5-75 µM"}, "[5]": {"test_system": "A549", "experiment": "Cytotoxicity against human A549 cells assessed as reduction in cell viability at 2.5 to 75 uM incubated for 48 hrs by resazurin reagent based fluorescence assay", "assay_type": "toxicity", "settings": "a549, 48 h, dose 2.5-75 µM"}, "[6]": {"test_system": "Mycobacterium tuberculosis", "experiment": "Antimicrobial activity in Mycobacterium tuberculosis expressing mCherry infected in human Primary macrophage cells assessed as reduction in number of intracellular bacilli at 7.5 uM by DAPI staining based Confocal laser scanning microscopy", "assay_type": "functional, organism-based"}, "[7]": {"test_system": "HepaRG", "experiment": "Cytotoxicity against human HepaRG cells assessed as reduction in cell viability at 60 uM incubated for 24 hrs by WST-1 assay", "assay_type": "toxicity, cell-based"}, "[8]": {"test_system": "HepG2", "experiment": "Cytotoxicity against human HepG2 cells assessed as reduction in cell viability at 10 to 20 uM incubated for 48 hrs by WST-1 assay", "assay_type": "toxicity, cell-based", "settings": "hepg2, 48 h, dose 10-20 µM"}, "[9]": {"biological_target": "T1, Nuclear receptor subfamily 1 group I member 2 (Homo sapiens, UniProt O75469)", "T1 sequence (O75469 whole entry)": "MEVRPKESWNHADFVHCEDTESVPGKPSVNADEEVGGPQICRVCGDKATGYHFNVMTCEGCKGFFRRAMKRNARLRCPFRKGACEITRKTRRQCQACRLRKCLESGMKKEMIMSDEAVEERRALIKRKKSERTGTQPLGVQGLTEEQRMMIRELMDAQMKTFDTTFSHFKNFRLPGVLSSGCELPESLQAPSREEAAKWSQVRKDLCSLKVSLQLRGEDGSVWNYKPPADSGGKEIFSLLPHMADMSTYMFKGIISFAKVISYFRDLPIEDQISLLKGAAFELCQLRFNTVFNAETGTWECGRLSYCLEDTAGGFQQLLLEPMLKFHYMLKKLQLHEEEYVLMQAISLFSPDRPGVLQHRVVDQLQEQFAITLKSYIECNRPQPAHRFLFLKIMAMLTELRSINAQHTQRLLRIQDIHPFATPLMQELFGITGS", "experiment": "Activation of GAL4-DBD fused human PXR LBD expressed in human HepG2 cells co-expressing GAL4-responsive UAS-driven firefly luciferase and renilla luciferase assessed as increase in luciferase activity at 1 to 20 uM incubated for 24 hrs by Dual-Glo luciferase assay relative to control", "assay_type": "cell-based", "settings": "hepg2, 24 h, dose 1-20 µM"}, "[10]": {"experiment": "Induction of CYP3A4 mRNA expression in human HepaRG cells at 1 to 20 uM incubated for 24 hrs by RT-qPCR analysis"}, "[11]": {"biological_target": "T1, Nuclear receptor subfamily 1 group I member 2", "experiment": "Transactivation of human PXR in human HepG2 cells coexpressing firefly luciferase gene under control of CYP3A4 promoter and renilla luciferase assessed as increase in luciferase activity at 1 to 20 uM incubated for 48 hrs by Dual-Glo luciferase assay", "settings": "hepg2, 48 h"}, "[12]": {"experiment": "Induction of CYP3A4 protein expression in human HepaRG cells at 1 to 20 uM incubated for 24 hrs by targeted mass spectrometry-based immunoassay"}, "[13]": {"test_system": "HepG2", "experiment": "Cytotoxicity against human HepG2 cells assessed as fold reduction in cell viability upto 20 uM incubated for 96 hrs by alamarBlue Cell Viability assay relative to control", "assay_type": "toxicity, cell-based", "settings": "hepg2, 96 h"}, "[14]": {"biological_target": "Cytochrome P450 3A4 (Homo sapiens, UniProt P08684)", "sequence (P08684 whole entry)": "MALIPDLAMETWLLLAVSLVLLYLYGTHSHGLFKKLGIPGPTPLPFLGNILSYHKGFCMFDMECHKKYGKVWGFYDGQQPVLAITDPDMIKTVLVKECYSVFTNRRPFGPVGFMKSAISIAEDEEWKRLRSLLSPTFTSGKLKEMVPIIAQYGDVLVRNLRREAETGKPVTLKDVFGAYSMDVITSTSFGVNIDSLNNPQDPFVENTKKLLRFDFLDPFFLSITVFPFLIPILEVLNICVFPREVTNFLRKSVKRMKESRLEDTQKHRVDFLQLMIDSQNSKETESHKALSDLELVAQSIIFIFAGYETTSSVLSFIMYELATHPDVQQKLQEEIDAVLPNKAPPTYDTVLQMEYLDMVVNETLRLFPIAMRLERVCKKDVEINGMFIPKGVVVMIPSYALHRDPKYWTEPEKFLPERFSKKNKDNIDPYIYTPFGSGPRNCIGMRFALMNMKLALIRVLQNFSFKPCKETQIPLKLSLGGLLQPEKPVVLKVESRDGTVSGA", "experiment": "Induction of CYP3A4 activity in human HepaRG cells at 5 to 10 uM incubated for 96 hrs by liquid chromatography with tandem mass spectrometry-based substrate cocktail assay", "assay_type": "ADME, cell-based", "settings": "dose 5-10 µM"}, "[15]": {"biological_target": "T2, Cytochrome P450 1A2 (Homo sapiens, UniProt P05177)", "T2 sequence (P05177 whole entry)": "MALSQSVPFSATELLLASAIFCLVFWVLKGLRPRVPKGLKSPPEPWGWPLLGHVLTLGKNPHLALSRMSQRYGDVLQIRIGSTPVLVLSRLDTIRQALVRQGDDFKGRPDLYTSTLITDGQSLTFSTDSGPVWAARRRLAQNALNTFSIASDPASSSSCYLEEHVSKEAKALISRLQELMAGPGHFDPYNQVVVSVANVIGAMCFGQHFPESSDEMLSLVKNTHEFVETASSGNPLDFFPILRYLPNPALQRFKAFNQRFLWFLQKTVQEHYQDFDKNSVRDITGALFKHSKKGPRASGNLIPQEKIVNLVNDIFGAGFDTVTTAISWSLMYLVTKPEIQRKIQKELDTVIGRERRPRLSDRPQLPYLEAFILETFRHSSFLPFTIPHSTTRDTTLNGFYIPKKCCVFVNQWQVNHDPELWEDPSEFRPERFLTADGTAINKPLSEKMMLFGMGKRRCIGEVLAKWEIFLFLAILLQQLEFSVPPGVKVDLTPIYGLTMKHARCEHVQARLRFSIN", "experiment": "Induction of CYP1A2 activity in human HepaRG cells at 5 to 10 uM incubated for 96 hrs by liquid chromatography with tandem mass spectrometry-based substrate cocktail assay", "assay_type": "ADME, cell-based", "settings": "dose 5-10 µM"}, "[16]": {"biological_target": "T3, Cytochrome P450 2B6 (Homo sapiens, UniProt P20813)", "T3 sequence (P20813 whole entry)": "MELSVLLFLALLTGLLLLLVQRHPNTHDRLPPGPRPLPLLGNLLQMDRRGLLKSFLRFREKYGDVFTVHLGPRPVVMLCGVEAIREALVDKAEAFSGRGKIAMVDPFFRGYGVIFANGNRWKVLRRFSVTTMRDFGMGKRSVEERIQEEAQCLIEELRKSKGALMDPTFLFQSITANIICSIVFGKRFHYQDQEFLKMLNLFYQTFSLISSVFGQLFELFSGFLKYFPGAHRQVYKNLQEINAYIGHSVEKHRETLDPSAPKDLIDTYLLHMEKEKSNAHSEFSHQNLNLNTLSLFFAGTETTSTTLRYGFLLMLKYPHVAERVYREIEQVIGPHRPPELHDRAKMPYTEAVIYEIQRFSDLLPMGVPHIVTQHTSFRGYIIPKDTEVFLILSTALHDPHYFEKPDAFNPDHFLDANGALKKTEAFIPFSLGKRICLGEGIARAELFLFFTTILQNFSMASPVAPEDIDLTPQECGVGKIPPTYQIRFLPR", "experiment": "Induction of CYP2B6 activity in human HepaRG cells at 5 to 10 uM incubated for 96 hrs by liquid chromatography with tandem mass spectrometry-based substrate cocktail assay", "assay_type": "ADME, cell-based", "settings": "dose 5-10 µM"}, "[17]": {"biological_target": "T4, Cytochrome P450 2C8 (Homo sapiens, UniProt P10632)", "T4 sequence (P10632 whole entry)": "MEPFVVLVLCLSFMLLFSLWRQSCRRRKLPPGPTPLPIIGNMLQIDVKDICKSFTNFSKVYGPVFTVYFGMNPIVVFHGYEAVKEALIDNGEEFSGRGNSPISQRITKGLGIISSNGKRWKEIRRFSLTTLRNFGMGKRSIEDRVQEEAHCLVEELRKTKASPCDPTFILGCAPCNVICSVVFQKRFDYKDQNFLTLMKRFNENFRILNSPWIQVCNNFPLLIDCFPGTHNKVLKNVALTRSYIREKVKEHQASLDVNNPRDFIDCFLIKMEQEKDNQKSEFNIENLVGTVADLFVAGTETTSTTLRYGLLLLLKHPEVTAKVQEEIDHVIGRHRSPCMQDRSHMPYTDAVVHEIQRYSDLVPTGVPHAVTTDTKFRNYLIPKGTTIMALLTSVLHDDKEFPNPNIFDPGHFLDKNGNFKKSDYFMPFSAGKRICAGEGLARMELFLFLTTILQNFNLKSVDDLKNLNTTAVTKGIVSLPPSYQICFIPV", "experiment": "Induction of CYP2C8 activity in human HepaRG cells at 5 to 10 uM incubated for 96 hrs by liquid chromatography with tandem mass spectrometry-based substrate cocktail assay", "assay_type": "ADME, cell-based", "settings": "dose 5-10 µM"}, "[18]": {"biological_target": "Cytochrome P450 2C9 (Homo sapiens, UniProt P11712)", "sequence (P11712 whole entry)": "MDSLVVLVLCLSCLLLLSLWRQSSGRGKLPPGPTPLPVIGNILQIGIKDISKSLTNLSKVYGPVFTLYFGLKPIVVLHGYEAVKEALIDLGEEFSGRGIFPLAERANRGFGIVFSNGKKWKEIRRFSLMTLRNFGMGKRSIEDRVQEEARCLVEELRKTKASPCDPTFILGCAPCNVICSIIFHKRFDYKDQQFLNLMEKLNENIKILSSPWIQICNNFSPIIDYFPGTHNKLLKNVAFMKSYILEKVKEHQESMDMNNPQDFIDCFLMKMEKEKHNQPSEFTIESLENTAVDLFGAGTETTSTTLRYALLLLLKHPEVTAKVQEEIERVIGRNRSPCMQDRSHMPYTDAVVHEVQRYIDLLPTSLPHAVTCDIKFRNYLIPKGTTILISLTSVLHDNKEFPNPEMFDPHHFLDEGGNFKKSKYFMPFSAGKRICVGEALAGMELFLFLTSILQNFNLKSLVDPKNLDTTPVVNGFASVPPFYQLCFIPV", "experiment": "Induction of CYP2C9 activity in human HepaRG cells at 5 to 10 uM incubated for 96 hrs by liquid chromatography with tandem mass spectrometry-based substrate cocktail assay", "assay_type": "ADME, cell-based", "settings": "dose 5-10 µM"}, "[19]": {"biological_target": "Cytochrome P450 2C19 (Homo sapiens, UniProt P33261)", "sequence (P33261 whole entry)": "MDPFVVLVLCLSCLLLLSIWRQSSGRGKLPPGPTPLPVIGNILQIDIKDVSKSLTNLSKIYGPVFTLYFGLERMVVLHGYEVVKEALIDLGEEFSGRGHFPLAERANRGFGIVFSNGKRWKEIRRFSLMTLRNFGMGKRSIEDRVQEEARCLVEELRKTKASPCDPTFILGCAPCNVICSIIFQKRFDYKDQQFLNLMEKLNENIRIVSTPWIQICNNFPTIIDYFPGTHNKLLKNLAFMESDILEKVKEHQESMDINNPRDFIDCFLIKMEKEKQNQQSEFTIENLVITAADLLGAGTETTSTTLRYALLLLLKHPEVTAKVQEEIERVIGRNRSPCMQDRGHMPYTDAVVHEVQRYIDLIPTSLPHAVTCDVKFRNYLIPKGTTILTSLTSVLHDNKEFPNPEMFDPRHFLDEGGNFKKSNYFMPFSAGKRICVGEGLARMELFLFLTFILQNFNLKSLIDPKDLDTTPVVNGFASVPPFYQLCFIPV", "experiment": "Induction of CYP2C19 activity in human HepaRG cells at 5 to 10 uM incubated for 96 hrs by liquid chromatography with tandem mass spectrometry-based substrate cocktail assay", "assay_type": "ADME, cell-based", "settings": "dose 5-10 µM"}, "[20]": {"biological_target": "T4, Cytochrome P450 2C8", "experiment": "Induction of CYP2C8 activity in human HepaRG cells at 10 uM incubated for 96 hrs by liquid chromatography with tandem mass spectrometry-based substrate cocktail assay", "assay_type": "ADME, cell-based"}}, "note": "Calls of active or inactive are those of the source. The rule behind the calls is not given here.", "data": [{"smiles": "CC(=O)C1=C(O)[C@@]2(CC=C(C)C)C[C@H](CC=C(C)C)C(C)(C)[C@@](CC=C(C)C)(C1=O)C2=O", "values": [{"measurement": "Activity", "setting": "[1]", "result": "inactive"}]}, {"smiles": "C=CC[C@@]12C[C@H](CC=C(C)C)C(C)(C)[C@@](CC=C)(C(=O)C(C(=O)c3ccccc3)=C1O)C2=O", "values": [{"measurement": "Activity", "setting": "[1]", "result": "inactive"}]}, {"smiles": "C=CC[C@@]12C[C@H](CC=C(C)C)C(C)(C)[C@@](CC=C)(C(=O)C(C(C)=O)=C1[O-])C2=O.[Na+]", "values": [{"measurement": "IC50", "setting": "[1]", "result": 38.8, "unit": "µM"}, {"measurement": "Activity", "setting": "[1]", "result": "Active"}, {"measurement": "IC50", "setting": "[2]", "result": 6.8, "unit": "µM"}, {"measurement": "Activity", "setting": "[3]", "result": "Non-Toxic"}, {"measurement": "Activity", "setting": "[4]", "result": "Non-Toxic"}, {"measurement": "Activity", "setting": "[5]", "result": "Non-Toxic"}, {"measurement": "Activity", "setting": "[6]", "result": "Active"}, {"measurement": "Activity", "setting": "[7]", "result": "< 80", "unit": "%"}, {"measurement": "Activity", "setting": "[8]", "result": "Toxic"}, {"measurement": "Activity", "setting": "[9]", "result": "Dose-Dependent Effect"}, {"measurement": "Activity", "setting": "[10]", "result": "Not Active"}, {"measurement": "Activity", "setting": "[11]", "result": "Dose-Dependent Effect"}, {"measurement": "Activity", "setting": "[12]", "result": "Not Active"}, {"measurement": "fold change (FC)", "setting": "[13]", "result": 5}, {"measurement": "Activity", "setting": "[14]", "result": "Not Active"}, {"measurement": "Activity", "setting": "[15]", "result": "Not Active"}, {"measurement": "Activity", "setting": "[16]", "result": "Not Active"}, {"measurement": "Activity", "setting": "[17]", "result": "Not Active"}, {"measurement": "Activity", "setting": "[18]", "result": "Not Active"}, {"measurement": "Activity", "setting": "[19]", "result": "Not Active"}]}, {"smiles": "CO[C@H]1/C=C/O[C@@]2(C)Oc3c(C)c(O)c4c(O)c(c(/C=N/N5CCN(C)CC5)c(O)c4c3C2=O)NC(=O)/C(C)=C\\C=C\\[C@H](C)[C@H](O)[C@@H](C)[C@@H](O)[C@@H](C)[C@H](OC(C)=O)[C@@H]1C", "note": "[RIFAMPIN]", "values": [{"measurement": "Activity", "setting": "[9]", "result": "Active"}, {"measurement": "Activity", "setting": "[20]", "result": "Not Active"}]}, {"smiles": "C=CC[C@@]12C(=O)C(C(=O)c3ccccc3)=C(O)[C@@](Cc3ccccc3)(C[C@H](Cc3ccccc3)C1(C)C)C2=O", "values": [{"measurement": "Activity", "setting": "[1]", "result": "inactive"}]}, {"smiles": "CC(C)=CC[C@H]1C[C@@]2(CC=C(C)C)C(=O)[C@](CC=C(C)C)(C(=O)C(C(=O)C(C)C)=C2O)C1(C)C", "values": [{"measurement": "Activity", "setting": "[1]", "result": "inactive"}]}, {"smiles": "C=CC[C@@]12C(=O)C(C(=O)c3ccccc3)=C(O)[C@@](Cc3ccccc3)(C[C@H](CC=C(C)C)C1(C)C)C2=O", "values": [{"measurement": "Activity", "setting": "[1]", "result": "inactive"}]}]}
